Assay results from US5055448A, “Linear derivatives of arginine vasopressin antagonists” (Medical College of Ohio, priority 1987, dated 1991).
Numbered stars: 1 amine (or outer) side, 2 acyl side, 3 side chain; on linkers, the order of the positions; unused ones are H or OH. Square brackets hold non-standard residues; d marks the D form. Peptide text beside a SMILES is read from it. * marks the point of attachment. Acetyl(1-adamantyl) = O=C(CC12CC3CC(CC(C3)C1)C2)*; Cyclohexylacetyl(1-SH) = O=C(CC1(S)CCCCC1)*; Ethylenediamine = C(CN[*:2])N[*:1]; Orn = NCCC[C@H](N)C(=O)O; Abu = CC[C@H](N)C(=O)O; X1 = CCC(S)(CC)CC(=O)*; Propionyl = CCC(=O)*

How the values were obtained:
[1] = system: vasopressor response to arginine vasopressin; settings: in vivo
Description: Antagonism to the vasopressor response was estimated in accordance with […] et al., J. Med. Chem., vol. 17 (1974) at 969. The values are expressed as pA2 values, defined as in Schild et al., Br. J. Pharmacol., vol. 2 (1947) at 189. Antagonistic potencies were determined and expressed as "effective doses" and pA2 values. The "effective dose" is defined as the dose (in nanomoles per kilogram) that reduces the response seen from 2x units of agonist injected 20 min after the dose of antagonist to the response with 1x units of agonist. Estimated in vivo "pA2 " values represent the negative logarithms of the effective doses, divided by the estimated volume of distribution (67 ml/kg).

[2] = system: antidiuretic response to arginine vasopressin; set-up: species or system rats; settings: rat, in vivo
Description: Activity as antidiuretic agonists was determined by intravenous injection of the compounds being evaluated in ethanol-anesthesized water-loaded rats in accordance with Sawyer, Endocrinology, vol. 63 (1958) at 694. Antagonism of the antidiuretic response to subsequent injections of arginine vasopressin was tested by the method of Sawyer et al., Science, vol. 212 (1981) at 49. Antagonistic potencies were determined and expressed as "effective doses" and pA2 values. The "effective dose" is defined as the dose (in nanomoles per kilogram) that reduces the response seen from 2x units of agonist injected 20 min after the dose of antagonist to the response with 1x units of agonist. Estimated in vivo "pA2 " values represent the negative logarithms of the effective doses, divided by the estimated volume of distribution (67 ml/kg).

Row | Structure (SMILES) | Antivasopressor pA2 [1] | Antiantidiuretic pA2 [2]
1 | CCOc1ccc(C[C@@H](NC(=O)CC23CC4CC(CC(C4)C2)C3)C(=O)N[C@@H](Cc2ccccc2)C(=O)N[C@H](C(=O)N[C@@H](CC(N)=O)C(=O)N[C@@H](CC)C(=O)N2CCC[C@H]2C(=O)N[C@H](CCCNC(=N)N)C(=O)N[C@@H](CCCNC(=N)N)C(N)=O)C(C)C)cc1 [(1-adamantyl)acetyl-D-(O-ethyl)tyrosyl-phenylalanyl-valyl-asparaginyl-(2-amino)butyryl-prolyl-D-arginyl-argininamide] ({Acetyl(1-adamantyl)}-[dY](Et)FVN[Abu]P[dR]R-NH2) | 7.49 ± 0.06 | 7.85 ± 0.08
2 | CCOc1ccc(C[C@@H](NC(=O)CC(S)(CC)CC)C(=O)N[C@@H](Cc2ccccc2)C(=O)N[C@H](C(=O)N[C@@H](CC(N)=O)C(=O)N[C@@H](CC)C(=O)N2CCC[C@H]2C(=O)N[C@@H](CCCNC(=N)N)C(=O)NCC(N)=O)C(C)C)cc1 [(3-ethyl-3-mercapto)valeroyl-D-(O-ethyl)tyrosyl-phenylalanyl-valyl-asparaginyl-(2-amino)butyryl-prolyl-arginyl-glycinamide] (X1-[dY](Et)FVN[Abu]PRG-NH2) | 6.94 ± 0.04 | 7.09 ± 0.09
3 | CCOc1ccc(C[C@@H](NC(=O)CC23CC4CC(CC(C4)C2)C3)C(=O)N[C@@H](Cc2ccccc2)C(=O)N[C@H](C(=O)N[C@@H](CC(N)=O)C(=O)N[C@@H](CCCCN)C(=O)N2CCC[C@H]2C(=O)N[C@@H](CCCNC(=N)N)C(N)=O)C(C)C)cc1 [(1-adamantyl)acetyl-D-(O-ethyl)-tyrosyl-phenylalanyl-valyl-asaparaginyl-lysyl-prolyl-argininamide] ({Acetyl(1-adamantyl)}-[dY](Et)FVNKPR-NH2) | 8.02 ± 0.06 | 7.81 ± 0.08
4 | CCOc1ccc(C[C@@H](NC(=O)CC23CC4CC(CC(C4)C2)C3)C(=O)N[C@@H](Cc2ccccc2)C(=O)N[C@H](C(=O)N[C@@H](CC(N)=O)C(=O)N[C@@H](CC)C(=O)N2CCC[C@H]2C(=O)N[C@@H](CCCNC(=N)N)C(N)=O)C(C)C)cc1 [(1-adamantyl)acetyl-D-(O-ethyl)tyrosyl-phenylalanyl-valyl-asparaginyl-(2-amino)butyryl-prolyl-argininamide] ({Acetyl(1-adamantyl)}-[dY](Et)FVN[Abu]PR-NH2) | 7.43 ± 0.06 | 7.20 ± 0.04
5 | CCOc1ccc(C[C@@H](NC(=O)CC23CC4CC(CC(C4)C2)C3)C(=O)N[C@@H](Cc2ccccc2)C(=O)N[C@H](C(=O)N[C@@H](CC(N)=O)C(=O)N[C@@H](CCCNC(=N)N)C(=O)N2CCC[C@H]2C(=O)N[C@@H](CCCNC(=N)N)C(N)=O)C(C)C)cc1 [(1-adamantyl)acetyl-D-(O-ethyl)tyrosyl-phenylalanyl-valyl-asparaginyl-arginyl-prolyl-argininamide] ({Acetyl(1-adamantyl)}-[dY](Et)FVNRPR-NH2) | 8.01 ± 0.05 | 7.73 ± 0.08
6 | CCOc1ccc(C[C@@H](NC(=O)CC23CC4CC(CC(C4)C2)C3)C(=O)N[C@@H](Cc2ccccc2)C(=O)N[C@H](C(=O)N[C@@H](CC(N)=O)C(=O)N[C@@H](CC)C(=O)N2CCC[C@H]2C(=O)N[C@@H](CCCNC(=N)N)C(=O)NCC(N)=O)C(C)C)cc1 [(1-adamantyl)acetyl-D-(O-ethyl)tyrosyl-phenylalanyl-valyl-asparaginyl-(2-amino)butyryl-prolyl-arginyl-glycinamide] ({Acetyl(1-adamantyl)}-[dY](Et)FVN[Abu]PRG-NH2) | 7.10 ± 0.07 | 7.50 ± 0.02
7 | CCOc1ccc(C[C@@H](NC(=O)CC23CC4CC(CC(C4)C2)C3)C(=O)N[C@@H](Cc2ccccc2)C(=O)N[C@H](C(=O)N[C@@H](CC(N)=O)C(=O)N[C@@H](CC)C(=O)N2CCC[C@H]2C(=O)N[C@@H](CCCNC(=N)N)C(=O)N[C@@H](C)C(N)=O)C(C)C)cc1 [(1-adamantyl)acetyl-D-(O-ethyl)tyrosyl-phenylalanyl-valyl-asparaginyl-(2-amino)butyryl-prolyl-arginyl-alaninamide] ({Acetyl(1-adamantyl)}-[dY](Et)FVN[Abu]PRA-NH2) | 7.18 ± 0.04 | 6.55 ± 0.04
8 | CCOc1ccc(C[C@@H](NC(=O)CC23CC4CC(CC(C4)C2)C3)C(=O)N[C@@H](Cc2ccccc2)C(=O)N[C@H](C(=O)N[C@@H](CC(N)=O)C(=O)N[C@@H](CCCN)C(=O)N2CCC[C@H]2C(=O)N[C@@H](CCCNC(=N)N)C(N)=O)C(C)C)cc1 [(1-adamantyl)acetyl-D-(O-ethyl)tyrosyl-phenylalanyl-valyl-asparaginyl-ornithyl-prolyl-argininamide] ({Acetyl(1-adamantyl)}-[dY](Et)FVN[Orn]PR-NH2) | 7.33 ± 0.06 | 7.81 ± 0.10
9 | CCOc1ccc(C[C@@H](NC(=O)CC23CC4CC(CC(C4)C2)C3)C(=O)N[C@@H](Cc2ccccc2)C(=O)N[C@H](C(=O)N[C@@H](CC(N)=O)C(=O)N[C@@H](CC)C(=O)N2CCC[C@H]2C(=O)N[C@@H](CCCNC(=N)N)C(=O)N[C@@H](CCCNC(=N)N)C(N)=O)C(C)C)cc1 [(1-adamantyl)acetyl-D-(O-ethyl)tyrosyl-phenylalanyl-valyl-asparaginyl-(2-amino)butyryl-prolyl-arginyl-argininamide] ({Acetyl(1-adamantyl)}-[dY](Et)FVN[Abu]PRR-NH2) | 7.75 ± 0.07 | 8.11 ± 0.07
10 | CCOc1ccc(C[C@@H](NC(=O)CC2(S)CCCCC2)C(=O)N[C@@H](Cc2ccccc2)C(=O)N[C@H](C(=O)N[C@@H](CC(N)=O)C(=O)N[C@@H](CC)C(=O)N2CCC[C@H]2C(=O)N[C@@H](CCCNC(=N)N)C(=O)NCC(N)=O)C(C)C)cc1 [(1-mercaptocyclohexyl)acetyl-D-(O-ethyl)tyrosyl-phenylalanyl-valyl-asparaginyl-(2-amino)butyryl-prolyl-arginyl-glycinamide] ({Cyclohexylacetyl(1-SH)}-[dY](Et)FVN[Abu]PRG-NH2) | 7.71 ± 0.05 | 7.42 ± 0.05
11 | CCOc1ccc(C[C@@H](NC(=O)CC)C(=O)N[C@@H](Cc2ccccc2)C(=O)N[C@H](C(=O)N[C@@H](CC(N)=O)C(=O)N[C@@H](CC)C(=O)N2CCC[C@H]2C(=O)N[C@@H](CCCNC(=N)N)C(=O)N[C@@H](CCCNC(=N)N)C(N)=O)C(C)C)cc1 [propionyl-D-(O-ethyl)tyrosyl-phenylalanyl-valyl-asparaginyl-(2-amino)butyryl-prolyl-arginyl-argininamide] (Propionyl-[dY](Et)FVN[Abu]PRR-NH2) | 6.71 ± 0.09 | 7.74 ± 0.07
12 | CCOc1ccc(C[C@@H](NC(=O)CC2(S)CCCCC2)C(=O)N[C@@H](Cc2ccccc2)C(=O)N[C@H](C(=O)N[C@@H](CC(N)=O)C(=O)N[C@@H](CS)C(=O)N2CCC[C@H]2C(=O)N[C@@H](CCCNC(=N)N)C(=O)NCC(N)=O)C(C)C)cc1 [(1-mercaptocyclohexyl)acetyl-D-(O-ethyl)tyrosyl-phenylalanyl-valyl-asparaginyl-cysteinyl-prolyl-arginyl-glycinamide] ({Cyclohexylacetyl(1-SH)}-[dY](Et)FVNCPRG-NH2) | 7.51 ± 0.03 | 7.05 ± 0.08
13 | CCOc1ccc(C[C@@H](NC(=O)CC23CC4CC(CC(C4)C2)C3)C(=O)N[C@@H](Cc2ccccc2)C(=O)N[C@H](C(=O)N[C@@H](CC(N)=O)C(=O)N[C@@H](CC)C(=O)N2CCC[C@H]2C(=O)N[C@@H](CCCNC(=N)N)C(=O)NCCN)C(C)C)cc1 [(1-adamantyl)acetyl-D-(O-ethyl)tyrosyl-phenylalanyl-valyl-asparaginyl-(2-amino)butyryl-prolyl-arginine-N-(2-aminoethyl)amide] ({Acetyl(1-adamantyl)}-[dY](Et)FVN[Abu]PR-Ethylenediamine) | 7.33 ± 0.09 | 7.71 ± 0.09
